Experiments:
MOLM-13-RES cells = experiment: MTS cell viability assay, MOLM-13-RES; type: cell-based, human; conditions: ratio of in vitro viability potency, MOLM-13-RES vs MOLM-13
[1] = single-agent phase I-II clinical trial in AML; cited from earlier work
in vivo = experiment: in vivo; set-up: species or system mice; conditions: female, athymic CrTac:NCr-Fox1(nu), mouse, po, 160 mg/kg
[2] = in mice; cited from earlier work

CC(C)(C)c1cc(NC(=O)Nc2ccc(-c3cn4c(n3)sc3cc(OCCN5CCOCC5)ccc34)cc2)no1 [AC220]
relative resistance of MOLM-13-RES compared with parental MOLM-13 cells (MOLM-13-RES cells): approximately 23 fold

CCN(CCCOc1ccc2c(Nc3cc(CC(=O)Nc4cccc(F)c4)n[nH]3)ncnc2c1)CCOP(=O)(O)O [AZD1152]
response rate [1]: 25%

COc1cc2c(N3CCN(C(=O)Nc4ccc(OC(C)C)cc4)CC3)ncnc2cc1OCCCN1CCCCC1 [MLN518]
concentration at 1 h after the last dose (in vivo): ~200 nM | concentration at 6 h after the last dose (in vivo): ~40 nM | plasma protein binding [2]: 80%

COc1cc(Nc2ncc3c(n2)-c2ccc(Cl)cc2C(c2c(F)cccc2OC)=NC3)ccc1C(=O)O [MLN8237]
response rate [1]: 17%

CNC(=O)c1cc(Oc2ccc(NC(=O)Nc3ccc(Cl)c(C(F)(F)F)c3)cc2)ccn1 [Sorafenib]
relative resistance of MOLM-13-RES compared with parental MOLM-13 cells (MOLM-13-RES cells): approximately 60 fold

Reference: PMC3523391 (Leukemia, 2012)
